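Protocol summary: plate cells (96-well), add compound at 5 concentrations, incubate 48 h, interpolate endpoints linearly. The concentration for full growth arrest is given as TGI.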
Tests used:
Assay in all cases: growth of human tumour cells (NCI), 48 h
MALME-3M melanoma = test system: MALME-3M melanoma
LOX IMVI melanoma = test system: LOX IMVI melanoma
RXF 393 renal = test system: RXF 393 renal
SK-MEL-5 melanoma = test system: SK-MEL-5 melanoma
BT-549 breast = test system: BT-549 breast
UACC-257 melanoma = test system: UACC-257 melanoma
CCRF-CEM leukemia = test system: CCRF-CEM leukemia
ACHN renal = test system: ACHN renal
RPMI-8226 leukemia = test system: RPMI-8226 leukemia
UACC-62 melanoma = test system: UACC-62 melanoma
MDA-N = test system: MDA-N
TK-10 renal = test system: TK-10 renal
SF-295 CNS = test system: SF-295 CNS
A498 renal = test system: A498 renal
HS 578T breast = test system: HS 578T breast
MDA-MB-231 breast = test system: MDA-MB-231 breast
K-562 leukemia = test system: K-562 leukemia
CAKI-1 renal = test system: CAKI-1 renal
M14 melanoma = test system: M14 melanoma
SK-MEL-28 melanoma = test system: SK-MEL-28 melanoma
SK-MEL-2 melanoma = test system: SK-MEL-2 melanoma
HL-60(TB) leukemia = test system: HL-60(TB) leukemia
OVCAR-3 ovarian = test system: OVCAR-3 ovarian
SNB-19 CNS = test system: SNB-19 CNS
DU-145 prostate = test system: DU-145 prostate
MDA-MB-435 = test system: MDA-MB-435
OVCAR-4 ovarian = test system: OVCAR-4 ovarian
NCI-H226 lung = test system: NCI-H226 lung
NCI-H522 lung = test system: NCI-H522 lung
786-0 renal = test system: 786-0 renal
MOLT-4 leukemia = test system: MOLT-4 leukemia
HT29 colon = test system: HT29 colon
COLO 205 colon = test system: COLO 205 colon
HOP-62 NSCLC = test system: HOP-62 NSCLC
U251 CNS = test system: U251 CNS
PC-3 prostate = test system: PC-3 prostate
KM12 colon = test system: KM12 colon
SN12C renal = test system: SN12C renal
NCI-H460 lung = test system: NCI-H460 lung
EKVX NSCLC = test system: EKVX NSCLC
SK-OV-3 ovarian = test system: SK-OV-3 ovarian
OVCAR-8 ovarian = test system: OVCAR-8 ovarian
NCI-H23 lung = test system: NCI-H23 lung
SF-539 CNS = test system: SF-539 CNS
SF-268 CNS = test system: SF-268 CNS
IGROV1 ovarian = test system: IGROV1 ovarian
HOP-92 NSCLC = test system: HOP-92 NSCLC
HCT-116 colon = test system: HCT-116 colon
T-47D breast = test system: T-47D breast
A549 NSCLC = test system: A549 NSCLC
OVCAR-5 ovarian = test system: OVCAR-5 ovarian
SNB-75 CNS = test system: SNB-75 CNS
UO-31 renal = test system: UO-31 renal
NCI/ADR-RES ovarian = test system: NCI/ADR-RES ovarian
MCF7 breast = test system: MCF7 breast
SR leukemia = test system: SR leukemia
SW-620 colon = test system: SW-620 colon
HCT-15 colon = test system: HCT-15 colon
HCC-2998 colon = test system: HCC-2998 colon

SMILES: CC(=O)OC1CCC2(C)C(=CCC3C2CCC2(C)C3CC3OC4(CCC(C)CN4)C(C)C32)C1 (stereo unspecified)
- TGI (MALME-3M melanoma): > 100 µM
- TGI (LOX IMVI melanoma): > 100 µM
- TGI (RXF 393 renal): > 100 µM
- TGI (SK-MEL-5 melanoma): > 100 µM
- TGI (BT-549 breast): > 100 µM
- TGI (UACC-257 melanoma): > 100 µM
- TGI (CCRF-CEM leukemia): > 100 µM
- TGI (ACHN renal): > 100 µM
- TGI (RPMI-8226 leukemia): > 100 µM
- TGI (UACC-62 melanoma): > 100 µM
- TGI (MDA-N): > 100 µM
- TGI (TK-10 renal): > 100 µM
- TGI (SF-295 CNS): > 100 µM
- TGI (A498 renal): > 100 µM
- TGI (HS 578T breast): > 100 µM
- TGI (MDA-MB-231 breast): > 100 µM
- TGI (K-562 leukemia): > 100 µM
- TGI (CAKI-1 renal): > 100 µM
- TGI (M14 melanoma): > 100 µM
- TGI (SK-MEL-28 melanoma): > 100 µM
- TGI (SK-MEL-2 melanoma): > 100 µM
- TGI (HL-60(TB) leukemia): > 100 µM
- TGI (OVCAR-3 ovarian): > 100 µM
- TGI (SNB-19 CNS): > 100 µM
- TGI (DU-145 prostate): > 100 µM
- TGI (MDA-MB-435): > 100 µM
- TGI (OVCAR-4 ovarian): > 100 µM
- TGI (NCI-H226 lung): > 100 µM
- TGI (NCI-H522 lung): > 100 µM
- TGI (786-0 renal): > 100 µM
- TGI (MOLT-4 leukemia): > 100 µM
- TGI (HT29 colon): > 100 µM
- TGI (COLO 205 colon): > 100 µM
- TGI (HOP-62 NSCLC): > 100 µM
- TGI (U251 CNS): > 100 µM
- TGI (PC-3 prostate): > 100 µM
- TGI (KM12 colon): > 100 µM
- TGI (SN12C renal): > 100 µM
- TGI (NCI-H460 lung): > 100 µM
- TGI (EKVX NSCLC): > 100 µM
- TGI (SK-OV-3 ovarian): > 100 µM
- TGI (OVCAR-8 ovarian): > 100 µM
- TGI (NCI-H23 lung): > 100 µM
- TGI (SF-539 CNS): > 100 µM
- TGI (SF-268 CNS): > 100 µM
- TGI (IGROV1 ovarian): > 100 µM
- TGI (HOP-92 NSCLC): > 100 µM
- TGI (HCT-116 colon): > 100 µM
- TGI (T-47D breast): > 100 µM
- TGI (A549 NSCLC): > 100 µM
- TGI (OVCAR-5 ovarian): > 100 µM
- TGI (SNB-75 CNS): > 100 µM
- TGI (UO-31 renal): > 100 µM
- TGI (NCI/ADR-RES ovarian): > 100 µM
- TGI (MCF7 breast): > 100 µM
- TGI (SR leukemia): > 100 µM
- TGI (SW-620 colon): > 100 µM
- TGI (HCT-15 colon): > 100 µM

SMILES: C=C(Cl)C(Cl)(CBr)CCCC(C)C (stereo unspecified)
- TGI (MALME-3M melanoma): > 100 µM
- TGI (LOX IMVI melanoma): > 100 µM
- TGI (RXF 393 renal): 44.2 µM
- TGI (SK-MEL-5 melanoma): > 100 µM
- TGI (BT-549 breast): > 100 µM
- TGI (UACC-257 melanoma): 32.2 µM
- TGI (CCRF-CEM leukemia): > 100 µM
- TGI (ACHN renal): 26.2 µM
- TGI (RPMI-8226 leukemia): > 27.3 µM
- TGI (UACC-62 melanoma): > 100 µM
- TGI (MDA-N): 97.1 µM
- TGI (TK-10 renal): 32.4 µM
- TGI (SF-295 CNS): 30 µM
- TGI (A498 renal): 34 µM
- TGI (HS 578T breast): 26.9 µM
- TGI (MDA-MB-231 breast): > 69.5 µM
- TGI (K-562 leukemia): > 100 µM
- TGI (CAKI-1 renal): 12.1 µM
- TGI (M14 melanoma): > 100 µM
- TGI (SK-MEL-28 melanoma): 37.3 µM
- TGI (HL-60(TB) leukemia): > 55.1 µM
- TGI (HCC-2998 colon): 34.1 µM
- TGI (OVCAR-3 ovarian): 12.4 µM
- TGI (SNB-19 CNS): 47.4 µM
- TGI (DU-145 prostate): 23.7 µM
- TGI (MDA-MB-435): > 100 µM
- TGI (OVCAR-4 ovarian): > 100 µM
- TGI (NCI-H226 lung): > 100 µM
- TGI (NCI-H522 lung): > 100 µM
- TGI (786-0 renal): 26.4 µM
- TGI (MOLT-4 leukemia): > 100 µM
- TGI (HT29 colon): 15.7 µM
- TGI (COLO 205 colon): 34.9 µM
- TGI (HOP-62 NSCLC): 27 µM
- TGI (U251 CNS): 21.9 µM
- TGI (PC-3 prostate): 27.5 µM
- TGI (KM12 colon): 24.2 µM
- TGI (SN12C renal): > 100 µM
- TGI (NCI-H460 lung): 30.2 µM
- TGI (EKVX NSCLC): 35 µM
- TGI (SK-OV-3 ovarian): > 100 µM
- TGI (OVCAR-8 ovarian): 47.6 µM
- TGI (NCI-H23 lung): > 100 µM
- TGI (SF-539 CNS): 22.7 µM
- TGI (SF-268 CNS): 40.1 µM
- TGI (IGROV1 ovarian): > 100 µM
- TGI (HOP-92 NSCLC): 31.7 µM
- TGI (HCT-116 colon): 24 µM
- TGI (T-47D breast): > 41.4 µM
- TGI (A549 NSCLC): 54.8 µM
- TGI (OVCAR-5 ovarian): 35.6 µM
- TGI (SNB-75 CNS): 41.5 µM
- TGI (UO-31 renal): 39.2 µM
- TGI (NCI/ADR-RES ovarian): > 80.4 µM
- TGI (MCF7 breast): 28.5 µM
- TGI (SR leukemia): > 100 µM
- TGI (SW-620 colon): > 84 µM
- TGI (HCT-15 colon): > 85.4 µM

Source: PubChem BioAssay (NCI)
